Measurements taken from BindingDB's records for doi:10.1021/bi9016186 (Weill Cornell Medical College, 2010).

Target: T1, Dihydrolipoyl dehydrogenase (Mycobacterium tuberculosis (strain CDC 1551 / Oshkosh), UniProt P9WHH8)
T1 sequence (P9WHH8 whole entry): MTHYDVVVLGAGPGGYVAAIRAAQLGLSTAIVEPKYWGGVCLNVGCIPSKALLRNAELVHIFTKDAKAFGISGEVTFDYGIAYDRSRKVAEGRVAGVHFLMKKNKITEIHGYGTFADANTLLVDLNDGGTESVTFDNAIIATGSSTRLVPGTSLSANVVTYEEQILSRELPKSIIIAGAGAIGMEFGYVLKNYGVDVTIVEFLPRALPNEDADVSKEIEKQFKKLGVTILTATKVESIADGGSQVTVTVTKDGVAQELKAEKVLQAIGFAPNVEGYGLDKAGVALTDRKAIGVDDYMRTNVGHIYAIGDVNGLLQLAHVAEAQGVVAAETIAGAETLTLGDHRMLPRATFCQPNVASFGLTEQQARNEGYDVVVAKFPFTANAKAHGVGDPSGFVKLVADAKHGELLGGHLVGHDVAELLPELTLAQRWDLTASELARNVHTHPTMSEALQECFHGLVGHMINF
Experiment: Enzymatic Assay

Compound	IC50
COc1ccc(C(=O)N2CCC3(CC2)C(=O)N(CC(=O)NCCc2ccc(C(F)(F)F)cc2)CN3c2ccccc2)c(OC)c1 [Triazaspirobenzyl, 4]	2000 nM
COc1cccc(C(=O)N2CCC3(CC2)C(=O)N(CC(=O)NCCc2ccc(C(F)(F)F)cc2)CN3c2ccccc2)c1 [Triazaspirobenzyl, 8]	> 100000 nM
